Data as given in patent US6440440B1, “Biocidal benzylbiphenyl derivatives” (priority 1998, dated 2002).

Experiments:
Type in all cases: cell-based
Debaryomyces hansenii = test: Screening against yeasts; parameters: key: 3 = complete inhibition of growth, 2 = growth partially controlled; conditions: test compound concentration 500 μM
Method: (§1) The stock solutions with the test compounds were pipetted into multiwell plates and mixed with warm tryptose broth agar (2.6%) in order to reach a test compound concentration of 500 μMol. The medium was allowed to cool and subsequently inoculated with the bacteria. Wells were placed in an incubator at 27° C. and a relative humidity of 70%. After sufficient growth of the untreated cultures, the test was evaluated.
(§2) 3: complete inhibition of bacterial growth
(§3) 2: bacterial growth partially controlled
(§4) A number of compounds of formula (I) were also tested in a screening against certain The test conditions are the same as described in biological example C.1. The concentration of the test compound was also 500 μmol, and the scoring system used was also the same.
Debaryomyces hansenii (19)

Rhodotorula rubra = test: Screening against yeasts; parameters: key: 3 = complete inhibition of growth, 2 = growth partially controlled; conditions: test compound concentration 500 μmol
Method: as §1, §2, §3, §4

Pseudomonas aeruginosa = test: Primary bacteria screening; parameters: key: score: 3 = complete inhibition of growth, 2 = growth partially controlled; conditions: test compound concentration 500 μMol in tryptose broth agar, 27° C.
Method: as §1, §2, §3

Escherichia coli = test: Primary bacteria screening; parameters: key: score: 3 = complete inhibition of growth, 2 = growth partially controlled; conditions: test compound concentration 500 μMol in tryptose broth agar, 27° C.
Method: as §1, §2, §3

Sporobolomyces roseus = test: Screening against yeasts; parameters: key: 3 = complete inhibition of growth, 2 = growth partially controlled; conditions: test compound concentration 500 μmol
Method: as §1, §2, §3, §4
Sporobolomyces roseus (21)

Providencia rettgeri = test: Poison plate assay, combinations with BAC; conditions: BAC alone 80 μmol
Method: Biocidal activity against bacterial/yeast growth was determined with the poison plate assay. To obtain the required concentrations of the test compound, calculated amounts of stock solutions (DMSO) were pipetted into multi-well plates. Tryptose agar (except for Rhodotorula: PDA) was added aseptically and uniform distribution was obtained by shaking. Each plate was inoculated with a bacterial/yeast suspension. After incubation at 27° C. and 70% relative humidity, for a period long enough to allow complete growth of controls, percentage activity as compared to the control was scored.
Possible synergy was investigated using Limpel's formula (Richter, D. L., Pestic. Sci. 1987, 19: 309-315): [formula]
where EC is the expected additive response, or calculated activity, X is the observed percentage control when compound A is applied alone and Y is the observed percentage control when compound B is applied alone. Synergy was considered to occur when the observed effect, or measured activity, of a combination of both compounds was greater than the corresponding EC value.
The table C.7 to C.8 below enumerate the measured and calculated activities of BAC and compounds 20, 42 and 40 when tested as a single test compound or as a combination against Providencia rettgeri. BAC (benzalconium chloride) is a well-bacteride and was tested at a concentration of 40 and 80 μmol. Compounds 20, 40 and 42 were tested at a concentration of 10, 20, 40, 80 and 160 μmol. When a synergistic effect was observed, the “measured” and “calculated” activity are indicated with a bold typeface.

Compound	Test yeast (19) Debaryomyces hansenii (score) (Debaryomyces hansenii)	Test yeast (20) Rhodotorula rubra (score) (Rhodotorula rubra)	P. aeruginosa (growth inhibition score) (Pseudomonas aeruginosa)	E. coli (growth inhibition score) (Escherichia coli)	Test yeast (21) Sporobolomyces roseus (score) (Sporobolomyces roseus)	Measured activity (Providencia rettgeri) [%]
Br.Br.COc1ccc(C(c2ccc(-c3ccccc3)cc2)C2CCN(C3CCNCC3)CC2)cc1 (stereo not shown) [compound 12]	3	2	2	3	3	–
NCCCN1CCC(C(c2ccccc2)c2ccc(-c3ccccc3)cc2)CC1.NCCCN1CCC(C(c2ccccc2)c2ccc(-c3ccccc3)cc2)CC1.O.O.O=C(O)C(O)C(O)C(=O)O.O=C(O)C(O)C(O)C(=O)O.O=C(O)C(O)C(O)C(=O)O (single isomer, unassigned) [compound 84]	–	–	3	3	–	–
CN(CCN)CCC(c1ccccc1)c1ccc(-c2ccccc2)cc1.O=c1[nH]sc2ccccc12 (stereo not shown) [compound 73]	–	–	3	3	–	–
CN(C)CCCN1CCC(N2CCC(C(c3ccccc3)c3ccc(-c4ccccc4)cc3)CC2)CC1.Cl.Cl.Cl (stereo not shown) [compound 15]	–	–	1	1	–	–
Cl.Cl.Cl.NC1CCN(C2CCN(C(c3ccccc3)c3ccc(-c4ccccc4)cc3)CC2)CC1 (stereo not shown) [compound 49]	3	2	1	3	3	–
Cl.Cl.NC1CCN(CCC(c2ccccc2)c2ccc(-c3ccccc3)cc2)CC1 (stereo not shown) [compound 31]	3	1	1	3	3	–
Cl.Cl.NCCCN1CCC(C(c2ccccc2)c2ccc(-c3ccccc3)cc2)CC1.O.O.O.O (stereo not shown) [Co. No. 78, (A)-4-[([1,1′-biphenyl]-4-yl)phenylmethyl]-1-piperidinepropanamine dihydrochloride tetrahydrate]	–	–	3	3	–	–
NCCCNCCC(c1ccccc1)c1ccc(-c2ccccc2)cc1.NS(=O)(=O)O.NS(=O)(=O)O (stereo not shown) [compound 67]	–	–	2	3	–	–
CCN1CCC(N2CCC(C(c3ccccc3)c3ccc(-c4ccccc4)cc3)CC2)CC1.Cl.Cl (stereo not shown) [compound 18]	3	1	2	1	3	–
Cl.Cl.Cl.c1ccc(-c2ccc(C(c3ccccc3)N3CCN(C4CCNCC4)CC3)cc2)cc1 (stereo not shown) [compound 46]	3	1	3	1	3	–
CC(C)O.Cl.Cl.Fc1ccc(C(=C2CCN(C3CCNCC3)CC2)c2ccc(-c3ccccc3)cc2)cc1 [Co. No. 2, 4-[[(1,1′-biphenyl)-4-yl](4-fluorophenyl)methylen](1,4′-bipiperidine)dihydrochloride 2-propanolate (1:1)]	–	–	1	3	–	–
CN(C)CCCN(C)CCC(c1ccccc1)c1ccc(-c2ccccc2)cc1 (racemic) [Co. No. 38, (±)-N-[3-[(1,1′-biphenyl)-4-yl]-3-phenylpropyl]-N,N′,N′-trimethylpropanediamine]	–	–	1	1	–	–
NCCCNCCC(c1ccccc1)c1ccc(-c2ccccc2)cc1.NCCCNCCC(c1ccccc1)c1ccc(-c2ccccc2)cc1.O=C(O)C(O)C(O)C(=O)O.O=C(O)C(O)C(O)C(=O)O.O=C(O)C(O)C(O)C(=O)O (single isomer, unassigned) [compound 69]	–	–	1	3	–	–
Cl.Cl.c1ccc(C(=C2CCN(C3CCNCC3)CC2)c2ccc(-c3ccccc3)cc2)cc1 [compound 3]	–	–	1	1	–	–
CN(C)CCC1CCN(CC=C(c2ccccc2)c2ccc(-c3ccccc3)cc2)CC1.Cl.Cl [compound 24]	–	–	1	1	–	–
Cl.c1ccc(-c2ccc(C(c3ccccc3)N3CCC(N4CCCCC4)CC3)cc2)cc1 (stereo not shown) [compound 45]	–	–	1	1	–	–
CN(C1CCN(C2CCNCC2)CC1)C(c1ccccc1)c1ccc(-c2ccccc2)cc1.O.O (stereo not shown) [compound 48]	–	–	1	1	–	–

Compound	Test yeast (19) Debaryomyces hansenii (score) (Debaryomyces hansenii)	Test yeast (20) Rhodotorula rubra (score) (Rhodotorula rubra)	P. aeruginosa (growth inhibition score) (Pseudomonas aeruginosa)	E. coli (growth inhibition score) (Escherichia coli)	Test yeast (21) Sporobolomyces roseus (score) (Sporobolomyces roseus)	Measured activity (Providencia rettgeri) [%]
benzalconium chloride [BAC, reference compound]	–	–	–	–	–	100
Cl.Fc1ccc(-c2ccc(C(=C3CCN(C4CCNCC4)CC3)c3ccccc3)cc2)cc1 [compound 5]	–	–	1	2	–	–
CN1CCC(N2CCC(C(c3ccccc3)c3ccc(-c4ccccc4)cc3)CC2)CC1 (stereo not shown) [compound 19]	–	–	1	1	–	–
CN(C)CCNCC=C(c1ccccc1)c1ccc(-c2ccccc2)cc1 [compound 37]	–	–	1	1	–	–
CN(C)CCCNCC=C(c1ccccc1)c1ccc(-c2ccccc2)cc1 [compound 36]	–	–	1	1	–	–
CN(C)CCC1CCN(CCC(O)(c2ccc(-c3ccccc3)cc2)c2ccc(Cl)cc2Cl)CC1.Cl.Cl (racemic) [Co. No. 34, (±)-α-[(1,1 ′-biphenyl)-4-yl]-a-(2,4-dichlorophenyl)-4-[2-(dimethylamino)ethyl]-1-piperidine-propanol dihydrochloride]	–	–	1	1	–	–
CC(C)O.Cl.Cl.Cl.O.c1ccc(-c2ccc(C(c3ccccc3)C3CCN(C4CCN(C5CCNCC5)CC4)CC3)cc2)cc1 (stereo not shown) [compound 44]	–	–	1	3	–	–
Cl.Cl.Fc1ccc(-c2ccc(C(c3ccc(Cl)cc3)C3CCN(C4CCNCC4)CC3)cc2)cc1 (stereo not shown) [compound 8]	–	–	3	3	–	–
O=S(=O)(O)c1ccc(-c2ccc(C(c3ccc(S(=O)(=O)O)cc3)C3CCN(C4CCNCC4)CC3)cc2)cc1 (stereo not shown) [compound 10]	–	–	1	1	–	–
CN(C)C1CCN(CCC(c2ccccc2)c2ccc(-c3ccccc3)cc2)CC1 (stereo not shown) [compound 32]	–	–	1	1	–	–
CN(C)CCCN(C)CC=C(c1ccccc1)c1ccc(-c2ccccc2)cc1 [compound 35]	–	–	1	3	–	–
CN(C)CCC1CCN(CCC(c2ccccc2)c2ccc(-c3ccccc3)cc2)CC1.Cl.Cl (stereo not shown) [compound 28]	–	–	1	1	–	–
CN(CCCN)CCCNC(c1ccccc1)c1ccc(-c2ccccc2)cc1.O=C(O)C(=O)O.O=C(O)C(=O)O.O=C(O)C(=O)O (stereo not shown) [compound 53]	–	–	1	3	–	–
CNCCNCCC(c1ccccc1)c1ccc(-c2ccccc2)cc1.Cl.Cl (racemic) [Co. No. 56, (±)-N-[3-([1,1′-biphenyl]-4-yl)-3-phenylpropyl]-N′-methyl-1,2-ethanediamine dihydrochloride]	–	–	1	3	–	–
CN(C1CCNCC1)C1CCN(CCC(c2ccccc2)c2ccc(-c3ccccc3)cc2)CC1.Cl.Cl.Cl.O.O.O (stereo not shown) [compound 89]	–	–	1	3	–	–
Fc1ccc(C(=C2CCN(C3CCNCC3)CC2)c2ccc(-c3ccc(F)cc3)cc2)cc1.O=C(O)/C=C/C(=O)O.O=C(O)/C=C/C(=O)O [compound 1]	–	–	1	3	–	–
CN(C)CCCN(C)CCCN(C)C(c1ccccc1)c1ccc(-c2ccccc2)cc1.Cl.Cl.Cl.O (stereo not shown) [compound 54]	–	–	1	3	–	–
